Reference: DBAASP
Converted amounts (≈) assume the structure as drawn. Blank lines part the entries; values can stand above or below the compound they belong to.

Tests used:
Assay in all cases: ≥ marks a high value that may be exact or a test limit, other limits are often not marked, values filed in µg/mL are converted to µM
[1] = system: Burkholderia thailandensis
[2] = system: Bacillus subtilis ATCC 9372
[3] = system: Bacillus anthracis Sterne 34F2
[4] = system: Pseudomonas aeruginosa ATCC 9027
[5] = system: Staphylococcus aureus RN4220
[6] = system: Staphylococcus aureus ATCC 43300
[7] = system: Pseudomonas aeruginosa ATCC 25619
[8] = system: Staphylococcus aureus ATCC 6538
[9] = system: Pseudomonas aeruginosa 1109
[10] = system: Acinetobacter baumannii ATCC 19606
[11] = system: Staphylococcus aureus USA 200
[12] = system: Staphylococcus aureus NRS 1
[13] = system: Pseudomonas aeruginosa ATCC 9721
[14] = system: Acinetobacter baumannii NR-9667
[15] = system: Pseudomonas aeruginosa ATCC BAA-1744
[16] = system: Staphylococcus aureus VRSA1
[17] = system: Pseudomonas aeruginosa ATCC 35032
[18] = system: Staphylococcus aureus NRS 72
[19] = system: Acinetobacter baumannii NR-17784
[20] = system: Pseudomonas aeruginosa 1133
[21] = system: Pseudomonas aeruginosa 1017
[22] = system: Pseudomonas aeruginosa ATCC 27853
[23] = system: Acinetobacter baumannii ATCC BAA-1605
[24] = system: Staphylococcus aureus ATCC BAA-44
[25] = system: Acinetobacter baumannii ATCC BAA-747
[26] = system: Staphylococcus epidermidis NRS 101
[27] = system: Staphylococcus aureus NRS 77
[28] = system: Staphylococcus aureus VRSA2
[29] = system: Staphylococcus aureus NRS 19
[30] = system: Staphylococcus aureus USA 300
[31] = system: Pseudomonas aeruginosa ATCC 10145
[32] = system: Staphylococcus aureus USA 100
[33] = system: Pseudomonas aeruginosa ATCC 15442
[34] = system: Acinetobacter baumannii NR-17777
[35] = system: Staphylococcus aureus BCRC 10780
Vibrio alginolyticus = system: Vibrio alginolyticus
[36] = system: Vibrio harveyi BCRC 13812
[37] = system: Staphylococcus sp. BCRC 10451
[38] = system: Streptococcus pneumoniae BCRC 10794
[39] = system: Micrococcus luteus BCRC 11034
Aspergillus ochraceus = system: Aspergillus ochraceus
Colletotrichum sp. = system: Colletotrichum sp.
Aspergillus niger = system: Aspergillus niger
[40] = system: Staphylococcus aureus ATCC 25325
Fusarium oxysporum = system: Fusarium oxysporum
[41] = system: Escherichia coli ATCC 35218
Alternaria sp. = system: Alternaria sp.
Fulvia fulva = system: Fulvia fulva
[42] = system: Neisseria gonorrhoeae F62
[43] = system: Neisseria gonorrhoeae FA19

SMILES: CC[C@H](C)[C@H](NC(=O)[C@H](Cc1cnc[nH]1)NC(=O)[C@H](CCCCN)NC(=O)[C@@H](NC(=O)[C@@H](NC(=O)[C@H](CC(=O)O)NC(=O)[C@H](Cc1ccccc1)NC(=O)[C@H](Cc1c[nH]c2ccccc12)NC(=O)CN)C(C)C)C(C)C)C(=O)N[C@@H](C)C(=O)N[C@@H](CO)C(=O)N[C@@H](C)C(=O)N[C@H](C(=O)O)C(C)C [GWFDVVKHIASAV]
MIC [1]: ≥ 50 µM
MIC [2]: ≥ 100 µM
MIC [3]: ≥ 100 µM

SMILES: CC[C@H](C)[C@H](NC(=O)[C@H](Cc1ccccc1)NC(C)=O)C(=O)N[C@@H](Cc1ccccc1)C(=O)N[C@@H](Cc1cnc[nH]1)C(=O)N[C@H](C(=O)N[C@H](C(=O)N[C@@H](CCCCN)C(=O)NCC(=O)N[C@@H](CC(C)C)C(=O)N[C@@H](Cc1ccccc1)C(=O)N[C@@H](Cc1cnc[nH]1)C(=O)N[C@@H](C)C(N)=O)[C@@H](C)CC)[C@@H](C)CC [FIFHIIKGLFHA]
MIC [35]: 4.33 µM (≈ 6.43 µg/mL)
MIC (Vibrio alginolyticus): 17.3 µM (≈ 25.7 µg/mL)
MIC [36]: 4.33 µM (≈ 6.43 µg/mL)
MIC [37]: 8.66 µM (≈ 12.9 µg/mL)

SMILES: CC(C)[C@H](NC(=O)[C@@H]1CSSC[C@H](N)C(=O)N[C@@H](Cc2ccc(O)cc2)C(=O)N[C@H]2CSSC[C@H](NC(=O)[C@H](Cc3ccccc3)NC(=O)[C@H](CCCNC(=N)N)NC(=O)[C@H](CCCNC(=N)N)NC(=O)[C@H](CCCNC(=N)N)NC2=O)C(=O)N[C@@H](C(C)C)C(=O)N1)C(=O)NCC(=O)N[C@@H](CCCNC(=N)N)C(N)=O [CYCRRRFCVCVGR]
MIC [42]: 2.7 µM (≈ 4.36 µg/mL)
MIC [43]: 6.56 µM (≈ 10.6 µg/mL)

Continued, values first:

MIC [4]: 64 µM (≈ 99.5 µg/mL)
MIC [5]: 8 µM (≈ 12.4 µg/mL)
MIC [6]: 16 µM (≈ 24.9 µg/mL)
MIC [7]: ≥ 64 µM
MIC [8]: 16 µM (≈ 24.9 µg/mL)
MIC [9]: ≥ 128 µM
MIC [10]: 16 µM (≈ 24.9 µg/mL)
MIC [11]: 8 µM (≈ 12.4 µg/mL)
MIC [12]: 16 µM (≈ 24.9 µg/mL)
MIC [13]: ≥ 64 µM
MIC [14]: ≥ 32 µM
MIC [15]: ≥ 128 µM
MIC [16]: ≥ 32 µM
MIC [17]: ≥ 64 µM
MIC [18]: ≥ 32 µM
MIC [19]: ≥ 64 µM
MIC [20]: ≥ 64 µM
MIC [21]: ≥ 128 µM
MIC [22]: 64 µM (≈ 99.5 µg/mL)
MIC [23]: ≥ 32 µM
MIC [24]: 16 µM (≈ 24.9 µg/mL)
MIC [25]: ≥ 64 µM
MIC [26]: 8 µM (≈ 12.4 µg/mL)
MIC [27]: 16 µM (≈ 24.9 µg/mL)
MIC [28]: 16 µM (≈ 24.9 µg/mL)
MIC [29]: 8 µM (≈ 12.4 µg/mL)
MIC [30]: 16 µM (≈ 24.9 µg/mL)
MIC [31]: ≥ 128 µM
MIC [32]: 16 µM (≈ 24.9 µg/mL)
MIC [33]: ≥ 128 µM
MIC [34]: 16 µM (≈ 24.9 µg/mL)
SMILES: CC[C@H](C)[C@H](NC(=O)[C@H](CCCN=C(N)N)NC(=O)[C@H](CCCN=C(N)N)NC(=O)[C@H](CC(C)C)NC(=O)[C@@H](N)Cc1c[nH]c2ccccc12)C(=O)N[C@@H](CCCCN)C(=O)N[C@@H](C)C(=O)N[C@@H](Cc1c[nH]c2ccccc12)C(=O)N[C@@H](CC(C)C)C(=O)N[C@@H](CCCN=C(N)N)C(=O)N[C@@H](CCCN=C(N)N)C(=O)O [WLRRIKAWLRR]

MIC [38]: ≥ 44.2 µM
MIC [35]: ≥ 44.2 µM
MIC [39]: ≥ 44.2 µM
MIC [37]: 5.52 µM (≈ 12.7 µg/mL)
SMILES: CC[C@H](C)[C@H](NC(=O)[C@H](CCCCN)NC(=O)[C@@H]1CCCN1C(=O)[C@@H](NC(=O)[C@H](CC(C)C)NC(=O)[C@H](C)NC(=O)[C@H](Cc1ccccc1)NC(=O)[C@H](Cc1ccccc1)NC(=O)CNC(C)=O)[C@@H](C)CC)C(=O)N[C@H](C(=O)N[C@@H](CO)C(=O)N[C@@H](CO)C(=O)N1CCC[C@H]1C(=O)N[C@@H](CC(C)C)C(=O)N[C@@H](Cc1ccccc1)C(=O)N[C@@H](CCCCN)C(=O)N[C@H](C(=O)N[C@@H](CC(C)C)C(=O)N[C@@H](CC(C)C)C(=O)N[C@@H](CO)C(=O)N[C@@H](C)C(N)=O)[C@@H](C)O)[C@@H](C)CC [GFFALIPKIISSPLFKTLLSA]

MIC (Aspergillus ochraceus): ≥ 37.4 µM
MIC (Colletotrichum sp.): 2.33 µM (≈ 3.12 µg/mL)
MIC (Aspergillus niger): 4.67 µM (≈ 6.25 µg/mL)
MIC [40]: 4.6 µM (≈ 6.15 µg/mL)
MIC [22]: 9.1 µM (≈ 12.2 µg/mL)
MIC (Fusarium oxysporum): 2.33 µM (≈ 3.12 µg/mL)
MIC [41]: 4 µM (≈ 5.35 µg/mL)
MIC (Alternaria sp.): 4.67 µM (≈ 6.25 µg/mL)
MIC (Fulvia fulva): 9.35 µM (≈ 12.5 µg/mL)
SMILES: CC(C)C[C@H](NC(=O)[C@H](Cc1ccc(O)cc1)NC(=O)[C@H](Cc1cnc[nH]1)NC(=O)[C@@H](NC(=O)[C@H](CC(C)C)NC(=O)[C@H](C)NC(=O)[C@H](C)NC(=O)[C@H](CCCCN)NC(=O)CNC(=O)[C@@H](NC(=O)[C@H](Cc1cnc[nH]1)NC(=O)[C@@H](N)CCCCN)C(C)C)[C@@H](C)O)C(=O)O [KHVGKAALTHYL]
